# Assay results reported in patent US20250249056A1, “CANCER THERAPIES COMPRISING A NUCLEAR EXPORT INHIBITOR AND AN ONCOLYTIC VIRUS” (priority 2022, published 2025).
# Like-named read-outs stand apart in the source and are kept apart here.
# System: Colo205 cells
# Assay type: cell-based, human
# [1] = selinexor-treated nucleus vs MYXV + selinexor-treated nucleus
structure (smiles),measurement,setting,value
O=C(/C=C\n1cnc(-c2cc(C(F)(F)F)cc(C(F)(F)F)c2)n1)NNc1cnccn1 [selinexor],"Differential protein expression, NPAT","Q14207, selinexor-treated cytoplasm vs control cytoplasm",0.01
same,"Differential protein expression, DSC3","Q14574, selinexor-treated cytoplasm vs control cytoplasm",2.069
same,"Differential protein expression, NCOA6","Q14686, selinexor-treated cytoplasm vs control cytoplasm",0.01
same,"Differential protein expression, SETDB1","Q15047, selinexor-treated cytoplasm vs control cytoplasm",0.01
same,"Differential protein expression, RRS1","Q15050, selinexor-treated cytoplasm vs control cytoplasm",2.155
same,"Differential protein expression, TOMM20","Q15388, selinexor-treated cytoplasm vs control cytoplasm",2.862
same,"Differential protein expression, CDSN","Q15517, selinexor-treated cytoplasm vs control cytoplasm",3.988
same,"Differential protein expression, TAF7","Q15545, selinexor-treated cytoplasm vs control cytoplasm",0.402
same,"Differential protein expression, TAF1C","Q15572, selinexor-treated cytoplasm vs control cytoplasm",100
same,"Differential protein expression, ELF2","Q15723, selinexor-treated cytoplasm vs control cytoplasm",0.01
same,"Differential protein expression, M11L","Q85295, selinexor-treated cytoplasm vs control cytoplasm",4.074
same,"Differential protein expression, MYO18A","Q92614, selinexor-treated cytoplasm vs control cytoplasm",2.026
same,"Differential protein expression, USP6NL","Q92738, selinexor-treated cytoplasm vs control cytoplasm",100
same,"Differential protein expression, TAF15","Q92804, selinexor-treated cytoplasm vs control cytoplasm",2.706
same,"Differential protein expression, KAT5","Q92993, selinexor-treated cytoplasm vs control cytoplasm",7.08
same,"Differential protein expression, TEAD3","Q99594, selinexor-treated cytoplasm vs control cytoplasm",100
same,"Differential protein expression, SLC29A1","Q99808, selinexor-treated cytoplasm vs control cytoplasm",0.406
same,"Differential protein expression, selinexor-treated nucleus vs control nucleus",protein AAAS (Q9NRG9),0.477
same,"Differential protein expression, selinexor-treated nucleus vs control nucleus",protein ABHD10 (Q9NUJ1),2.289
same,"Differential protein expression, selinexor-treated nucleus vs control nucleus",protein ACAD10 (Q6JQN1),2.239
same,"Differential protein expression, selinexor-treated nucleus vs control nucleus",protein BRIX1 (Q8TDN6),0.475
same,"Differential protein expression, selinexor-treated nucleus vs control nucleus",protein CALML5 (Q9NZT1),2.328
same,"Differential protein expression, selinexor-treated nucleus vs control nucleus",protein CASP9 (P55211),100
same,"Differential protein expression, selinexor-treated nucleus vs control nucleus",protein CDK3 (Q00526),0.472
same,"Differential protein expression, selinexor-treated nucleus vs control nucleus",protein CHMP2B (Q9UQN3),2.092
same,"Differential protein expression, selinexor-treated nucleus vs control nucleus",protein CIB1 (Q99828),0.474
same,"Differential protein expression, selinexor-treated nucleus vs control nucleus",protein CIT (O14578),0.498
same,"Differential protein expression, selinexor-treated nucleus vs control nucleus",protein COA1 (Q9GZY4),0.481
same,"Differential protein expression, selinexor-treated nucleus vs control nucleus",protein CSTA (P01040),2.196
same,"Differential protein expression, selinexor-treated nucleus vs control nucleus",protein ECHDC1 (Q9NTX5),2.716
same,"Differential protein expression, selinexor-treated nucleus vs control nucleus",protein EFNB1 (P98172),100
same,"Differential protein expression, selinexor-treated nucleus vs control nucleus",protein ERLIN2 (O94905),0.498
same,"Differential protein expression, selinexor-treated nucleus vs control nucleus",protein F5 (P12259),100
same,"Differential protein expression, selinexor-treated nucleus vs control nucleus",protein FBLIM1 (Q8WUP2),0.481
same,"Differential protein expression, selinexor-treated nucleus vs control nucleus",protein FHIP1B (Q8N612),100
same,"Differential protein expression, selinexor-treated nucleus vs control nucleus",protein FN3K (Q9H479),2.007
same,"Differential protein expression, selinexor-treated nucleus vs control nucleus",protein FOS (P01100),2.044
same,"Differential protein expression, selinexor-treated nucleus vs control nucleus",protein FXR1 (Q9UM11),2.17
same,"Differential protein expression, selinexor-treated nucleus vs control nucleus",protein GEMIN5 (Q8TEQ6),0.496
same,"Differential protein expression, selinexor-treated nucleus vs control nucleus",protein GEMIN6 (Q8WXD5),0.473
same,"Differential protein expression, selinexor-treated nucleus vs control nucleus",protein GNL2 (Q13823),2.38
same,"Differential protein expression, selinexor-treated nucleus vs control nucleus",protein H2AC1 (Q96QV6),2.215
same,"Differential protein expression, selinexor-treated nucleus vs control nucleus",protein H2AC4 (P04908),2.544
same,"Differential protein expression, selinexor-treated nucleus vs control nucleus",protein H2AC6 (Q93077),2.544
same,"Differential protein expression, selinexor-treated nucleus vs control nucleus",protein H2AC18 (Q6FI13),2.322
same,"Differential protein expression, selinexor-treated nucleus vs control nucleus",protein H2AC20 (Q16777),2.322
same,"Differential protein expression, selinexor-treated nucleus vs control nucleus",protein H2AC21 (Q8IUE6),2.215
same,"Differential protein expression, selinexor-treated nucleus vs control nucleus",protein H2AC25 (Q7L7L0),2.544
same,"Differential protein expression, selinexor-treated nucleus vs control nucleus",protein H2AX (P16104),2.215
same,"Differential protein expression, selinexor-treated nucleus vs control nucleus",protein H2BK1 (A0A2R8Y619),2.69
same,"Differential protein expression, selinexor-treated nucleus vs control nucleus",protein H3-3A (P84243),2.584
same,"Differential protein expression, selinexor-treated nucleus vs control nucleus",protein HK1 (P19367),0.496
same,"Differential protein expression, selinexor-treated nucleus vs control nucleus",protein HNRNPA1L2 (Q32P51),2.623
same,"Differential protein expression, selinexor-treated nucleus vs control nucleus",protein KIF23 (Q02241),0.492
same,"Differential protein expression, selinexor-treated nucleus vs control nucleus",protein KRT1 (P04264),2.317
same,"Differential protein expression, selinexor-treated nucleus vs control nucleus",protein KRT7 (P08729),2.576
same,"Differential protein expression, selinexor-treated nucleus vs control nucleus",protein KRT14 (P02533),2.157
same,"Differential protein expression, selinexor-treated nucleus vs control nucleus",protein KRT24 (Q2M2I5),2.19
same,"Differential protein expression, selinexor-treated nucleus vs control nucleus",protein KRT25 (Q7Z3Z0),2.158
same,"Differential protein expression, selinexor-treated nucleus vs control nucleus",protein KRT27 (Q7Z3Y8),2.158
same,"Differential protein expression, selinexor-treated nucleus vs control nucleus",protein KRT28 (Q7Z3Y7),2.058
same,"Differential protein expression, selinexor-treated nucleus vs control nucleus",protein LGALS7 (P47929),2.013
same,"Differential protein expression, selinexor-treated nucleus vs control nucleus",protein LRRC58 (Q96CX6),2.747
same,"Differential protein expression, selinexor-treated nucleus vs control nucleus",protein MAFF (Q9ULX9),2.133
same,"Differential protein expression, selinexor-treated nucleus vs control nucleus",protein MAGED2 (Q9UNF1),2.271
same,"Differential protein expression, selinexor-treated nucleus vs control nucleus",protein MAN1A1 (P33908),100
same,"Differential protein expression, selinexor-treated nucleus vs control nucleus",protein MICOS13 (Q5XKP0),0.483
same,"Differential protein expression, selinexor-treated nucleus vs control nucleus",protein MTX1 (Q13505),0.499
same,"Differential protein expression, selinexor-treated nucleus vs control nucleus",protein NDE1 (Q9NXR1),0.484
same,"Differential protein expression, selinexor-treated nucleus vs control nucleus",protein NDEL1 (Q9GZM8),0.481
same,"Differential protein expression, selinexor-treated nucleus vs control nucleus",protein NDUFA5 (Q16718),0.488
same,"Differential protein expression, selinexor-treated nucleus vs control nucleus",protein NDUFA11 (Q86Y39),0.492
same,"Differential protein expression, selinexor-treated nucleus vs control nucleus",protein NDUFS3 (075489),0.478
same,"Differential protein expression, selinexor-treated nucleus vs control nucleus",protein NDUFS8 (O00217),0.487
same,"Differential protein expression, selinexor-treated nucleus vs control nucleus",protein NFAT5 (O94916),2.586
same,"Differential protein expression, selinexor-treated nucleus vs control nucleus",protein NUDT3 (O95989),100
same,"Differential protein expression, selinexor-treated nucleus vs control nucleus",protein NXN (Q6DKJ4),100
same,"Differential protein expression, selinexor-treated nucleus vs control nucleus",protein OAS1 (P00973),2.45
same,"Differential protein expression, selinexor-treated nucleus vs control nucleus",protein OCIAD2 (Q56VL3),0.5
same,"Differential protein expression, selinexor-treated nucleus vs control nucleus",protein PAN2 (Q504Q3),2.108
same,"Differential protein expression, selinexor-treated nucleus vs control nucleus",protein PAN3 (Q58A45),2.073
same,"Differential protein expression, selinexor-treated nucleus vs control nucleus",protein PANK1 (Q8TE04),100
same,"Differential protein expression, selinexor-treated nucleus vs control nucleus",protein PATL1 (Q86TB9),0.487
same,"Differential protein expression, selinexor-treated nucleus vs control nucleus",protein PAXX (Q9BUH6),2.321
same,"Differential protein expression, selinexor-treated nucleus vs control nucleus",protein PHF19 (Q5T6S3),0.477
same,"Differential protein expression, selinexor-treated nucleus vs control nucleus",protein PNO1 (Q9NRX1),2.639
same,"Differential protein expression, selinexor-treated nucleus vs control nucleus",protein POLR2B (P30876),0.486
same,"Differential protein expression, selinexor-treated nucleus vs control nucleus",protein PRDX4 (Q13162),2.477
same,"Differential protein expression, selinexor-treated nucleus vs control nucleus",protein RBL2 (Q08999),2.063
same,"Differential protein expression, selinexor-treated nucleus vs control nucleus",protein ROCK1 (Q13464),2.201
same,"Differential protein expression, selinexor-treated nucleus vs control nucleus",protein RPL10 (P27635),0.483
same,"Differential protein expression, selinexor-treated nucleus vs control nucleus",protein RPL10L (Q96L21),0.473
same,"Differential protein expression, selinexor-treated nucleus vs control nucleus",protein RPLP1 (P05386),0.472
same,"Differential protein expression, selinexor-treated nucleus vs control nucleus",protein RRM1 (P23921),0.488
same,"Differential protein expression, selinexor-treated nucleus vs control nucleus",protein RTN4 (Q9NQC3),0.491
same,"Differential protein expression, selinexor-treated nucleus vs control nucleus",protein S100A8 (P05109),2.396
same,"Differential protein expression, selinexor-treated nucleus vs control nucleus",protein SDAD1 (Q9NVU7),2.021
same,"Differential protein expression, selinexor-treated nucleus vs control nucleus",protein SDCBP2 (Q9H190),2.735
same,"Differential protein expression, selinexor-treated nucleus vs control nucleus",protein SFXN2 (Q96NB2),0.478
same,"Differential protein expression, selinexor-treated nucleus vs control nucleus",protein SFXN5 (Q8TD22),0.48
same,"Differential protein expression, selinexor-treated nucleus vs control nucleus",protein SLC12A7 (Q9Y666),0.496
same,"Differential protein expression, selinexor-treated nucleus vs control nucleus",protein SLC25A11 (Q02978),0.496
same,"Differential protein expression, selinexor-treated nucleus vs control nucleus",protein SLC25A12 (O75746),0.483
same,"Differential protein expression, selinexor-treated nucleus vs control nucleus",protein SLC25A17 (O43808),0.484
same,"Differential protein expression, selinexor-treated nucleus vs control nucleus",protein SLC25A35 (Q3KQZ1),0.474
same,"Differential protein expression, selinexor-treated nucleus vs control nucleus",protein SPG7 (Q9UQ90),0.481
same,"Differential protein expression, selinexor-treated nucleus vs control nucleus",protein TDRKH (Q9Y2W6),0.492
same,"Differential protein expression, selinexor-treated nucleus vs control nucleus",protein TEAD2 (Q15562),0.487
same,"Differential protein expression, selinexor-treated nucleus vs control nucleus",protein TEAD4 (Q15561),0.494
same,"Differential protein expression, selinexor-treated nucleus vs control nucleus",protein TMA7 (Q9Y2S6),2.251
same,"Differential protein expression, selinexor-treated nucleus vs control nucleus",protein TOMM20 (Q15388),0.497
same,"Differential protein expression, selinexor-treated nucleus vs control nucleus",protein TPPP3 (Q9BW30),2.549
same,"Differential protein expression, selinexor-treated nucleus vs control nucleus",protein UQCR10 (Q9UDW1),0.477
same,"Differential protein expression, selinexor-treated nucleus vs control nucleus",protein VCPIP1 (Q96JH7),2.057
same,"Differential protein expression, selinexor-treated nucleus vs control nucleus",protein YBX1 (P67809),0.477
same,"Differential protein expression, selinexor-treated nucleus vs control nucleus",protein m090L (D2WN26),100
same,"Differential protein expression, selinexor-treated nucleus vs control nucleus",protein m093L (Q9Q8K7),0.498
same,Differential protein expression B2CWA6 m003.1R,[1],0.145
same,Differential protein expression B2CWA8,[1],0.122
same,Differential protein expression B2CWB0,[1],0.01
same,Differential protein expression B2CWB2,[1],0.055
same,Differential protein expression B2CWB4 m008.1L,[1],0.045
same,Differential protein expression B2CWB5,[1],0.036
same,Differential protein expression B2CWC0,[1],0.092
same,Differential protein expression B2CWC1 m015L,[1],0.04
same,Differential protein expression B2CWC6 m020L,[1],0.191
same,Differential protein expression B2CWC8,[1],0.058
same,Differential protein expression B2CWD4 m027L,[1],0.045
same,Differential protein expression B2CWD6 m029L,[1],0.023
same,Differential protein expression B2CWD8,[1],0.011
same,Differential protein expression B2CWE0 m033R,[1],0.01
same,Differential protein expression B2CWE1,[1],0.047
same,Differential protein expression B2CWE3,[1],0.064
same,Differential protein expression B2CWF3 m046L,[1],0.111
same,Differential protein expression B2CWF4 m047R,[1],0.039
same,Differential protein expression B2CWF6,[1],0.051
